# Measurements from the supplement of paper PMC10307832.
# Experiments:
# Test in all cases: relative viability (nuclei count vs DMSO), 5 days (fraction); higher = more cells survive
# GSK126 + Luminespib = compound: CC[C@H](C)N1C=C(C2=C(C=C(C=C21)C3=CN=C(C=C3)N4CCNCC4)C(=O)NCC5=C(C=C(NC5=O)C)C)C [GSK126] + CCNC(=O)c1noc(-c2cc(C(C)C)c(O)cc2O)c1-c1ccc(CN2CCOCC2)cc1 [Luminespib] (partner 0.01 µM)
# In short: (§1)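 Relative viability is defined as nuclei in treated wells over nuclei in vehicle wells. Duplicate plates were run and medians reported. Lung cancer cell lines in 1536-well plates were dosed by pin tool one day after seeding, with one drug or with a fixed anchor-drug dose plus five library-drug doses (not always all listed) in √10 steps, and nuclei were counted after 5 days.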
# GSK126 + Olaparib = compound: CC[C@H](C)N1C=C(C2=C(C=C(C=C21)C3=CN=C(C=C3)N4CCNCC4)C(=O)NCC5=C(C=C(NC5=O)C)C)C [GSK126] + O=C(c1cc(Cc2n[nH]c(=O)c3ccccc23)ccc1F)N1CCN(C(=O)C2CC2)CC1 [Olaparib] (partner 8 µM)
# In short: as §1
# MLN4924 + Lapatinib = compound: NS(=O)(=O)OC[C@@H]1C[C@@H](n2ccc3c(N[C@H]4CCc5ccccc54)ncnc32)C[C@@H]1O [MLN4924] + CS(=O)(=O)CCNCc1ccc(-c2ccc3ncnc(Nc4ccc(OCc5cccc(F)c5)c(Cl)c4)c3c2)o1 [Lapatinib] (partner 2 µM)
# In short: as §1
# MLN4924 + Decitabine = compound: NS(=O)(=O)OC[C@@H]1C[C@@H](n2ccc3c(N[C@H]4CCc5ccccc54)ncnc32)C[C@@H]1O [MLN4924] + Nc1ncn([C@H]2C[C@H](O)[C@@H](CO)O2)c(=O)n1 [Decitabine] (partner 2 µM)
# In short: as §1
Cell Line,relative viability (GSK126 + Luminespib; first compound 0.08 µM),relative viability (GSK126 + Luminespib; first compound 0.253 µM),relative viability (GSK126 + Luminespib; first compound 0.8 µM),relative viability (GSK126 + Luminespib; first compound 2.53 µM),relative viability (GSK126 + Luminespib; first compound 8 µM),relative viability (GSK126 + Olaparib; first compound 0.08 µM),relative viability (GSK126 + Olaparib; first compound 0.253 µM),relative viability (GSK126 + Olaparib; first compound 0.8 µM),relative viability (GSK126 + Olaparib; first compound 2.53 µM),relative viability (GSK126 + Olaparib; first compound 8 µM),relative viability (MLN4924 + Lapatinib; first compound 0.04 µM),relative viability (MLN4924 + Lapatinib; first compound 0.1265 µM),relative viability (MLN4924 + Lapatinib; first compound 0.4 µM),relative viability (MLN4924 + Lapatinib; first compound 1.265 µM),relative viability (MLN4924 + Lapatinib; first compound 4 µM),relative viability (MLN4924 + Decitabine; first compound 0.04 µM),relative viability (MLN4924 + Decitabine; first compound 0.1265 µM),relative viability (MLN4924 + Decitabine; first compound 0.4 µM),relative viability (MLN4924 + Decitabine; first compound 1.265 µM),relative viability (MLN4924 + Decitabine; first compound 4 µM)
HCC-44,1.14,1.1,1,1.11,1.16,1.01,1.02,1.03,0.92,1,0.657,0.249,0.159,0.142,0.145,0.874,0.85,0.582,0.421,0.399
HCC-78,,,,,,0.742,0.822,0.807,0.822,0.617,0.871,0.515,0.683,0.142,0.215,0.685,0.775,0.485,0.27,0.244
HCC-366,,,,,,0.451,0.386,0.366,0.396,0.342,0.788,0.479,0.037,0.0233,0.0288,0.335,0.338,0.279,0.164,0.0343
HCC-827,0.612,0.685,0.676,0.629,0.783,0.725,0.642,0.617,0.726,0.601,0.242,0.283,0.398,0.182,0.166,0.336,0.308,0.218,0.15,0.2
HOP-62,0.938,0.863,0.943,0.889,0.783,0.447,0.506,0.414,0.455,0.428,0.843,0.798,0.205,0.114,0.0815,0.195,0.201,0.0844,0.0618,0.0785
IA-LM,,,,,,1.03,0.832,0.99,0.759,0.75,0.256,0.239,0.103,0.0582,0.0755,,,,,
LC-2-ad,1,1.19,0.948,1.04,1.01,0.703,0.698,0.67,0.712,0.357,0.561,0.505,0.143,0.104,0.107,0.791,0.748,0.585,0.508,0.322
LCLC-97TM1,0.758,0.796,0.867,0.82,0.81,0.494,0.596,0.413,0.507,0.445,0.853,0.798,0.189,0.11,0.137,0.188,0.156,0.133,0.0597,0.0565
LCLC-103H,1.16,0.931,0.908,1.01,0.994,0.837,0.791,0.774,0.792,0.795,,,,,,0.807,0.638,0.547,0.261,0.315
LK-2,0.217,0.171,0.171,0.204,0.188,0.904,0.71,0.727,0.859,0.689,0.521,0.656,0.638,0.272,0.257,0.228,0.253,0.216,0.118,0.156
LOU-NH91,0.303,0.337,0.325,0.364,0.357,0.938,0.942,0.879,0.956,0.887,0.814,0.926,0.904,0.533,0.414,0.793,0.797,0.684,0.557,0.523
NCI-H441,0.361,0.283,0.28,0.35,0.349,0.612,0.561,0.566,0.539,0.44,,,,,,0.253,0.241,0.22,0.158,0.175
NCI-H522,1.2,1.2,1.13,1.19,1.13,0.61,0.599,0.639,0.611,0.699,,,,,,0.626,0.598,0.571,0.401,0.406
NCI-H1299,,,,,,1,0.93,0.922,0.921,0.976,0.954,0.838,0.329,0.282,0.253,,,,,
NCI-H1563,0.546,0.491,0.535,0.514,0.505,,,,,,1.38,0.759,0.627,0.485,0.61,,,,,
NCI-H1623,0.617,0.425,0.502,0.512,0.42,,,,,,,,,,,,,,,
NCI-H1648,,,,,,1.01,1.22,0.774,1.1,0.908,,,,,,0.572,0.507,0.398,0.305,0.336
NCI-H1703,,,,,,0.576,0.351,0.694,0.455,0.492,0.416,0.205,0.218,0.189,0.164,,,,,
NCI-H2228,0.173,0.12,0.116,0.118,0.205,0.649,0.75,0.511,0.669,0.691,,0.638,0.271,0.13,0.161,,,,,
NCI-H2342,0.731,0.875,0.799,0.857,0.878,0.447,0.501,0.392,0.424,0.469,,,,,,0.695,0.75,0.718,0.643,0.468
SW 900,0.206,0.188,0.165,0.173,0.213,0.909,0.751,0.866,0.885,0.888,,,,,,,0.427,0.344,0.27,0.211
